Assay results from US20100317575A1, “PHARMACEUTICAL COMPOSITION COMPRISING A PYRAZOLE-O-GLUCOSIDE DERIVATIVE” (BOEHRINGER INGELHEIM INTERNATIONAL GMBH, priority 2007, published 2010).

Legend:
[1] = system: Male Zucker Diabetic Fatty (ZDF) rats (ZDF/Crl-Lepr^fa); assay: Blood glucose AUC 0-7 h on day 20 of treatment in ZDF rats; format: in vivo, rat
Protocol: All experimental protocols concerning the use of laboratory animals are reviewed by a federal Ethics Committee and approved by governmental authorities. […] Control animals are dosed twice daily with vehicle alone. Blood samples are obtained by tail bleed. Blood glucose is measured with a glucometer and HbA1c is measured with an automated analyzer (Cobas Integra 400, Roche). Prior to start of treatment, the animals are randomized for blood glucose and HbA1c (n=10/group). On day 20 of treatment, blood glucose is measured in tail blood pre-dose, 0.5 h, 1.5 h, 3 h, and 7 h after dosing. Blood glucose is quantified by calculating the total glucose AUC 0-7 h. The data are presented as mean±SEM. The two-sided unpaired Student t-test is used for statistical comparison of the control group and the active groups.

[2] = system: Male Zucker Diabetic Fatty (ZDF) rats (ZDF/Crl-Lepr^fa); assay: HbA1c on day 37 of treatment in ZDF rats; format: in vivo, rat; conditions: overnight fasted
Protocol: All experimental protocols concerning the use of laboratory animals are reviewed by a federal Ethics Committee and approved by governmental authorities. Male Zucker Diabetic Fatty (ZDF) rats (ZDF/Crl-Lepr^fa) at the age of 12 weeks are treated for 5 weeks with the pyrazole-O-glucoside (16), i.e. 4-(2-fluoro-4-methoxy-benzyl)-1-isopropyl-5-methyl-3-β-D-glucopyranos-1-yloxy-1H-pyrazole, at a dose of 10 mg/kg administered twice daily in the morning and evening, or with metformin at a dose of 200 mg/kg once daily in the morning, or with the combination of the pyrazole-O-glucoside and metformin at the same dose regimens. Vehicle for administration is 0.5% aqueous hydroxyethylcellulose containing 0.015% Polysorbat 80. Control animals are dosed twice daily with vehicle alone. Blood samples are obtained by tail bleed. Blood glucose is measured with a glucometer and HbA1c is measured with an automated analyzer (Cobas Integra 400, Roche). Prior to start of treatment, the animals are randomized for blood glucose and HbA1c (n=10/group).
On day 37 of treatment, HbA1c is measured pre-dose in tail blood obtained from overnight fasted animals. The data are presented as mean±SEM.

[3] = system: the diabetic; conditions: metformin on its own; cited from earlier work

| Compound | reduction of total glucose AUC 0-7 h versus control ([1]; 10 mg/kg twice daily) [%] | reduction of HbA1c (numerically) versus control ([2]; 10 mg/kg twice daily) [%] | reduction of total glucose AUC 0-7 h versus control ([1]; metformin 200 mg/kg once daily) [%] | reduction of HbA1c (numerically) versus control ([2]; metformin 200 mg/kg once daily) [%] | average improvement in the HbA1c value [3] |
| --- | --- | --- | --- | --- | --- |
| COc1ccc(Cc2c(O[C@@H]3O[C@H](CO)[C@@H](O)[C@H](O)[C@H]3O)nn(C(C)C)c2C)c(F)c1 [(16), 4-(2-fluoro-4-methoxy-benzyl)-1-isopropyl-5-methyl-3-β-D-glucopyranos-1-yloxy-1H-pyrazole] | 38 | 2.1 |  |  |  |
| CN(C)C(=N)N=C(N)N [Metformin, metformin] |  |  | 11 | 0.3 | 1.0-1.5% |
